Results on 15 compounds are retold here after patent publication US4816586A, “Delta opioid receptor antagonists” (Regents of the University of Minnesota, priority 1987, dated 1989).

Bounds are passed on as bounds.

Holding throughout (type): cell-based
For assay [1], the target named is T1, delta opioid receptor (Mus musculus, UniProt P32300). The assay can be described thus: Comparison as delta antagonist with ICI 174864 and M8008.
In assay [2] the target is T1, delta opioid receptor. Description: Antagonism of DADLE (delta agonist) in the mouse vas deferens (MVD) preparation. More on the design: Both vasa deferentia were dissected out of mice; from tissue; host or cells: mouse vas deferens; key to Ke, DADLE: No agonist antagonism observed. To be noted: for Kb: compound 100 or 200 nM, 15 min incubation, read-out: Ke, DADLE; for relative delta antagonist potency: compared within the series. On the procedure:
(§1) The organ bath was maintained at 37° C.
The results of these bioassays are summarized on Table IV, below.

The target of the next assay is T2, kappa opioid receptor (Cavia porcellus, UniProt P41144).
T2 construct: a strip of longitudinal muscle with the myenteric plexus attached was prepared; from tissue; host or cells: guinea pig ileum longitudinal muscle with myenteric plexus
The assay can be described thus: Antagonism of ethylketazocine (kappa agonist) in the guinea pig ileum (GPI) preparation. The arrangement: key to Ke, EK: No agonist antagonism observed. To be noted: for Kb: compound 100 or 200 nM, 15 min incubation, read-out: Ke, EK. On the procedure: (§2) 1. Guinea Pig Ileal Longitudinal Muscle (GPI). Ilea from guinea pigs were taken approximately 10 cm from the ileocaecal junction, and a strip of longitudinal muscle with the myenteric plexus attached was prepared by method of Rang et al., Brit. J. Pharmacol., 22, 356 (1964), the disclosure of which is incorporated by reference herein. A 1 cm portion of this strip was then mounted between two platinum electrodes placed in a 10 ml organ bath and connected to an isometric transducer; contractions were recorded on a polygraph. Contractions of the ileal strip were initiated by supramaximal rectangular pulses in all preparations (80 V of 0.5 ms duration at a frequency of 0.1 Hz). Krebs bicarbonate solution containing 1.25 μM chlorpheniramine maleate was the bathing solution and was continuously bubbled with 95% O2 and 5% CO2. The organ bath was maintained at 36°-37° C. The longitudinal muscle strip was allowed to equilibrate with continuous stimulation for a minimum of 90 min.

For the next assay, the target named is mu opioid receptor (Cavia porcellus, UniProt A0ACM8Q262). The assay can be described thus: Antagonism of morphine (mu agonist) in the guinea pig ileum (GPI) preparation. To be noted: for Kb: compound 100 or 200 nM, 15 min incubation, read-out: Ke. More on the design: key to Ke, M: No agonist antagonism observed. As for the experimental part: as §2
Assay [3] has as its system mouse vas deferens (MVD) and guinea pig ileum (GPI) preparations. Description: Agonist activity in the MVD and GPI preparations. As for the experimental part:
as §2, §1

Where [4] appears, read: compound 7 tested at 5 nM or less.

Chain of mu opioid receptor (A0ACM8Q262 1-400): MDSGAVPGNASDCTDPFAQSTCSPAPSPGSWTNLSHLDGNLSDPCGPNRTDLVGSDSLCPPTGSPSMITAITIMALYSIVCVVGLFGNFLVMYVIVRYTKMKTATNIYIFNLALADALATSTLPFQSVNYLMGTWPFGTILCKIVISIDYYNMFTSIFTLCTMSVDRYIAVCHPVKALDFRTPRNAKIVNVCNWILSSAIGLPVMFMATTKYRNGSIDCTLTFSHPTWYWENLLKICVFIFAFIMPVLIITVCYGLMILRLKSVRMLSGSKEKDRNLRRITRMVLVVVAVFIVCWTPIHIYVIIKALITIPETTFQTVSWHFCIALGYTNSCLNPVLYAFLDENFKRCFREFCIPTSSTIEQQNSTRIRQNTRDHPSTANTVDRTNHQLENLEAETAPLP
T2 sequence (P41144 whole entry): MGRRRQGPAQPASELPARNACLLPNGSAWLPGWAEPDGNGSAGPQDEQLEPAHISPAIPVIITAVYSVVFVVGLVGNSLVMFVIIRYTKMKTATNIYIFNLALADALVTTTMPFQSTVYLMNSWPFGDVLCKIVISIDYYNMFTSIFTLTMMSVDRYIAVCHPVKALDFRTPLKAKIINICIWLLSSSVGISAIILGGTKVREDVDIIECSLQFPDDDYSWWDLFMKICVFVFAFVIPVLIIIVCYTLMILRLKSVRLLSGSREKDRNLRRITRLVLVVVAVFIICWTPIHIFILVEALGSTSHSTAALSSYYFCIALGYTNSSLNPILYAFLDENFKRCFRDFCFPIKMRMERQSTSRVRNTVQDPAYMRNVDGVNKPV
T1 sequence (P32300 whole entry): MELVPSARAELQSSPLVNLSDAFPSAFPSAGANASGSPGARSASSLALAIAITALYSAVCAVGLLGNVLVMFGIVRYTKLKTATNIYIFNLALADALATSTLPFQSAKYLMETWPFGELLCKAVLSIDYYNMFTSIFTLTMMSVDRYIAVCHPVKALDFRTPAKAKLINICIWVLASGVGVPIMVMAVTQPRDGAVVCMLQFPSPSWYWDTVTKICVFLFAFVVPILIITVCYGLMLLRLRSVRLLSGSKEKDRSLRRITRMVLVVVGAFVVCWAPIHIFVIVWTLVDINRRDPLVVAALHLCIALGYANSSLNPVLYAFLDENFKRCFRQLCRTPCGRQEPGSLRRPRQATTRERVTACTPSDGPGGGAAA

Turning to `Oc1ccc2c3c1O[C@H]1c4[nH]c5ccccc5c4C[C@@]4(O)[C@@H](C2)N(CC2CC2)CC[C@]314` [Compound 1, 17-Cyclopropylmethyl-6,7-dehydro-4,5α-epoxy-3,14-dihydroxy-6,7,2',3'-indolomorphinan], the “potency compared with ICI 174864” value at delta opioid receptor [1] is “considerably more potent than the peptide delta antagonist, ICI 174864”. Further, on delta opioid receptor [1] (in one assay), the “potency relative to the peptide delta antagonist ICI 174864” value was “at least 30 times”. In addition, on delta opioid receptor [2], the “antagonism of the effect of the delta agonist DADLE / delta antagonist activity” value is “highly active delta antagonist” and the “relative delta antagonist potency” value is “an order of magnitude more potent than its substituted congeners”. The Kb on delta opioid receptor [2] (agonist DADLE, MVD) was 0.22 nM.
As to `Cn1c2c(c3ccccc31)C[C@@]1(O)[C@H]3Cc4ccc(O)c5c4[C@@]1(CCN3CC1CC1)[C@H]2O5` [Compound 2], the Kb at kappa opioid receptor amounted to 22.2 nM; on mu opioid receptor, 12.5 nM; at delta opioid receptor [2] (agonist DADLE, MVD), 1.5 nM. The “relative delta antagonist potency” value on delta opioid receptor [2] is “reduction of antagonist potency”.
In the case of `Oc1ccc2c3c1O[C@H]1c4[nH]c5ccc(F)cc5c4C[C@@]4(O)[C@@H](C2)N(CC2CC2)CC[C@]314` [Compound 3], the Kb on kappa opioid receptor amounted to 46.2 nM; on mu opioid receptor, 61.7 nM; at delta opioid receptor [2] (agonist DADLE, MVD), 2 nM.
In the case of `COc1ccc2[nH]c3c(c2c1)C[C@@]1(O)[C@H]2Cc4ccc(O)c5c4[C@@]1(CCN2CC1CC1)[C@H]3O5` [Compound 4], the Kb came to 12.6 nM at kappa opioid receptor and 5.7 nM on delta opioid receptor [2] (agonist DADLE, MVD).
For the compound `Cc1ccc2[nH]c3c(c2c1)C[C@@]1(O)[C@H]2Cc4ccc(O)c5c4[C@@]1(CCN2CC1CC1)[C@H]3O5` [Compound 5], the Kb on kappa opioid receptor was greater than 250 nM; on mu opioid receptor it was greater than 160 nM; on delta opioid receptor [2] (agonist DADLE, MVD), 4.2 nM.
Take `O=[N+]([O-])c1ccc2[nH]c3c(c2c1)C[C@@]1(O)[C@H]2Cc4ccc(O)c5c4[C@@]1(CCN2CC1CC1)[C@H]3O5` [Compound 6]: the Kb at kappa opioid receptor was no less than 200 nM; at mu opioid receptor, 92 nM; on delta opioid receptor [2] (agonist DADLE, MVD), 168 nM.
As to `CN1CC[C@]23c4c5ccc(O)c4O[C@H]2c2[nH]c4ccccc4c2C[C@@]3(O)[C@H]1C5` [Compound 7], the “agonist activity” value in assay [3] is reported as “partial agonist activity”. In assay [3] (compared with the N-cyclopropyl analogues), the “relative agonist potency” value was “substantially more potent as an agonist than the N-cyclopropyl analogues”. At kappa opioid receptor (setting [4]), the “Ke, EK” value is “e”. For the same compound, the “Ke, M” value at mu opioid receptor (setting [4]) is recorded as “e”. Moreover, the “Ke, DADLE” value at delta opioid receptor [2] (agonist DADLE, MVD, compound 7 tested at 5 nM or less) is “e”.
For the compound `Oc1ccc2c3c1O[C@H]1c4oc5ccccc5c4C[C@@]4(O)[C@@H](C2)N(CC2CC2)CC[C@]314` [Compound 8, 6,7,2',3'-Benzofurano-17-cyclopropylmethyl-6,7-dehydro-3,14-dihydroxy-4,5α-epoxymorphinan], the Kb on kappa opioid receptor came out at 50.8 nM; at mu opioid receptor, 30.8 nM; at delta opioid receptor [2] (agonist DADLE, MVD), 1.8 nM. The “antagonism of the effect of the delta agonist DADLE / delta antagonist activity” value at delta opioid receptor [2] is “retains substantial delta antagonist activity”. In addition, the “relative delta selectivity” value on delta opioid receptor [2] (compared with compound 1) was “less selective than 1”. The “relative delta antagonist potency” value at delta opioid receptor [2] is reported as “less potent”.
For the compound `Oc1ccc2[nH]c3c(c2c1)C[C@@]1(O)[C@H]2Cc4ccc(O)c5c4[C@@]1(CCN2CC1CC1)[C@H]3O5` [Compound 9], the Kb at kappa opioid receptor worked out at 68.5 nM.
With `Oc1ccc2c3c1O[C@H]1c4[nH]c5cccc(F)c5c4C[C@@]4(O)[C@@H](C2)N(CC2CC2)CC[C@]314` [Compound 10], the Kb on kappa opioid receptor is greater than 170 nM; on mu opioid receptor, greater than 125 nM; on delta opioid receptor [2] (agonist DADLE, MVD), 5.5 nM.
Regarding `Oc1ccc2c3c1O[C@H]1c4[nH]c5c(F)cccc5c4C[C@@]4(O)[C@@H](C2)N(CC2CC2)CC[C@]314` [Compound 11], the Kb is greater than 330 nM at kappa opioid receptor; 5.3 nM on mu opioid receptor; 0.35 nM at delta opioid receptor [2] (agonist DADLE, MVD).
As to `Cc1cccc2c3c([nH]c12)[C@@H]1Oc2c(O)ccc4c2[C@@]12CCN(CC1CC1)[C@H](C4)[C@]2(O)C3` [Compound 13], the Kb at kappa opioid receptor is greater than 330 nM; on mu opioid receptor, 19.1 nM; on delta opioid receptor [2] (agonist DADLE, MVD), 1.5 nM.
Consider `COc1cccc2c3c([nH]c12)[C@@H]1Oc2c(O)ccc4c2[C@@]12CCN(CC1CC1)[C@H](C4)[C@]2(O)C3` [Compound 14], for which the Kb is 35 nM on mu opioid receptor and 6.6 nM on delta opioid receptor [2] (agonist DADLE, MVD).
Consider `Oc1ccc2c3c1O[C@H]1c4nc5ccccc5nc4C[C@@]4(O)[C@@H](C2)N(CC2CC2)CC[C@]314` [Compound 16, 6,7,2',3'-benzopyrazino-17-cyclopropylmethyl-6,7-dehydro-3,14-dihydroxy-4,5α-epoxymorphinan], for which the Kb at kappa opioid receptor was determined as 13.4 nM; at delta opioid receptor [2] (agonist DADLE, MVD), 1.4 nM. Moreover, on delta opioid receptor [2], the “relative delta antagonist potency” value is “A similar relationship was observed”.
In the case of `Oc1ccc2c3c1O[C@H]1c4nc5ccccc5cc4C[C@@]4(O)[C@@H](C2)N(CC2CC2)CC[C@]314` [Compound 17, 17-cyclopropylmethyl-6,7-dehydro-4,5α-epoxy-3,14-dihydroxy-6,7,2',3'-quinolinomorphinan], the Kb stood at 16.3 nM on kappa opioid receptor and 2.7 nM on delta opioid receptor [2] (agonist DADLE, MVD). Also, the “relative delta antagonist potency” value at delta opioid receptor [2] was “A similar relationship was observed”.
